Results taken from BindingDB's records for doi:10.1016/j.bmcl.2009.12.085 (Bristol-Myers Squibb Pharmaceutical Research and Development, 2010).

Molecular target: Potassium voltage-gated channel subfamily A member 5 (Homo sapiens, UniProt P22460)
Test: Inhibition of human Kv1.5 channel expressed in mouse L929 cells

Potassium voltage-gated channel subfamily A member 5, sequence (P22460 whole entry): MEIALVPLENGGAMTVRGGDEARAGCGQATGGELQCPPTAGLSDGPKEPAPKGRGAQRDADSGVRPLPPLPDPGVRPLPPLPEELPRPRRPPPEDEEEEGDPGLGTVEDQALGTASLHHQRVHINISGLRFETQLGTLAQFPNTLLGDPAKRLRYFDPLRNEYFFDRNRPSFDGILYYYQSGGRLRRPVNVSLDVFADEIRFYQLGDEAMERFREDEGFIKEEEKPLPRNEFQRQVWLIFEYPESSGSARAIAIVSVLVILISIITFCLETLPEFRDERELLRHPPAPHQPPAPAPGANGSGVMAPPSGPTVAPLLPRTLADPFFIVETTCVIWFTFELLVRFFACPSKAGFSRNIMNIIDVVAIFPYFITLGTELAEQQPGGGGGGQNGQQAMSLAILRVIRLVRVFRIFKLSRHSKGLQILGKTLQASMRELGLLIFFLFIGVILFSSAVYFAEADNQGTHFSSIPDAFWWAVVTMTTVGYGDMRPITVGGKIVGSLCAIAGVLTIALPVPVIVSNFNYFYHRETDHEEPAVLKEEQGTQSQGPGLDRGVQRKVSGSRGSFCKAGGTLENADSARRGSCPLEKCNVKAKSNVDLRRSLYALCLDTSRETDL

| Compound | IC50 |
| --- | --- |
| CC1=Nc2ccnn2C(c2ccc(Cl)c(Cl)c2)C1C(=O)N1CCCC1c1ccccn1 (centres undefined) [(7-(3,4-dichlorophenyl)-5-methyl-4,7-dihydropyrazolo[1,5-a]pyrimidin-6-yl)(2-(pyridin-2-yl)pyrrolidin-1-yl)methanone] | 660 nM |
| CC1=Nc2ccnn2C(c2ccc(Cl)c(Cl)c2)C1C(=O)N1CCC[C@H]1c1nnn[nH]1 (stereo partly drawn) [((S)-2-(1H-tetrazol-5-yl)pyrrolidin-1-yl)(7-(3,4-dichlorophenyl)-5-methyl-4,7-dihydropyrazolo[1,5-a]pyrimidin-6-yl)methanone] | > 1000 nM |
| COC(=O)[C@@H]1CCCN1C(=O)C1C(C)=Nc2ccnn2C1c1ccc(Cl)c(Cl)c1 (stereo partly drawn) [(2S)-methyl 1-(7-(3,4-dichlorophenyl)-5-methyl-4,7-dihydropyrazolo[1,5-a]pyrimidine-6-carbonyl)pyrrolidine-2-carboxylate] | 150 nM |
| CC1=Nc2ccnn2C(c2ccc(Cl)c(Cl)c2)C1C(=O)N1CCCC1c1ccc(F)cc1 (centres undefined) [(7-(3,4-dichlorophenyl)-5-methyl-4,7-dihydropyrazolo[1,5-a]pyrimidin-6-yl)(2-(4-fluorophenyl)pyrrolidin-1-yl)methanone] | 70 nM |
| CC1=Nc2ccnn2C(c2ccc(Cl)c(Cl)c2)C1C(=O)N1CCC[C@H]1c1nnc(N)s1 (stereo partly drawn) [((S)-2-(5-amino-1,3,4-thiadiazol-2-yl)pyrrolidin-1-yl)(7-(3,4-dichlorophenyl)-5-methyl-4,7-dihydropyrazolo[1,5-a]pyrimidin-6-yl)methanone] | > 1000 nM |
| CC1=Nc2ccnn2C(c2ccc(Cl)c(Cl)c2)C1C(=O)N1CCCC1c1ccccc1 (centres undefined) [(7-(3,4-dichlorophenyl)-5-methyl-4,7-dihydropyrazolo[1,5-a]pyrimidin-6-yl)(2-phenylpyrrolidin-1-yl)methanone] | 150 nM |
| CC1=Nc2ccnn2C(c2ccc(Cl)c(Cl)c2)C1C(=O)N1CCC[C@H]1c1nnc[nH]1 (stereo partly drawn) [((S)-2-(4H-1,2,4-triazol-3-yl)pyrrolidin-1-yl)(7-(3,4-dichlorophenyl)-5-methyl-4,7-dihydropyrazolo[1,5-a]pyrimidin-6-yl)methanone] | > 1000 nM |
| CC1=Nc2ccnn2C(c2ccc(Cl)c(Cl)c2)C1C(=O)N1CCCC1c1cccnc1 (centres undefined) [(7-(3,4-dichlorophenyl)-5-methyl-4,7-dihydropyrazolo[1,5-a]pyrimidin-6-yl)(2-(pyridin-3-yl)pyrrolidin-1-yl)methanone] | > 1000 nM |
| CC1=Nc2ccnn2C(c2ccc(Cl)c(Cl)c2)C1C(=O)N1CCC[C@H]1c1n[nH]c(=O)n1C (stereo partly drawn) [3-((2S)-1-(7-(3,4-dichlorophenyl)-5-methyl-4,7-dihydropyrazolo[1,5-a]pyrimidine-6-carbonyl)pyrrolidin-2-yl)-4-methyl-1H-1,2,4-triazol-5(4H)-one] | > 1000 nM |
